Measurements reported in paper PMC8308836, “Albumin Nanoparticle Formulation for Heart-Targeted Drug Delivery: In Vivo Assessment of Congestive Heart Failure” (Pharmaceuticals, 2021).
Read-outs that look alike come from different tables or passages of the source.

Tests used:
[1] = 2 h time point; i.v., MRN dose 50 μg/kg, rat, mean ± SD (n = 4)
Protocol: The animals were randomized into three groups in a blinded manner. Group I (n = 6) was intravenously injected with 1 c.c. saline. […] Group III (n = 12) was intravenously injected with 250 μL of MRN Lactate containing 50 μg/kg MRN. Blood was collected from the jugular vein at the following timepoints: 0, 5, 15, 30, 45, 60, 120, and 360 min. The animals were euthanized by isoflurane/CO2. Organ tissues (heart, lungs, liver, and kidneys) were collected, washed, rinsed, and snap-frozen in liquid nitrogen.

IL-6 = test: Serum cytokine measurement by ELISA: IL-6; assay type: in vivo, female Lewis rats; conditions: 1-week post treatment; i.v. injection, CHF rats, mean ± SD (n = 5)
Protocol: (§1) The cytokine analysis for levels of IL-6, IL-10, and tumor necrosis factor-alpha (TNF-α) was performed using commercially available ELISA kits (Abcam) according to the manufacturer’s instructions. Microtiter plates were precoated with a murine monoclonal antibody against the rat cytokine being measured. Standards of the analyte and serum samples were added in triplicate. The absorbance was read at 450 nm within 30 min of stopping the reaction and standard curves were plotted.

[2] = 24 h post treatment; i.v. injection 50 μg/kg, CHF rats, mean ± SD (n = 3)
Protocol: The surgery was performed in a blinded manner as previously mentioned [22, 38]. Briefly, rats were anesthetized using 5% isoflurane, intubated, and mechanically ventilated at 80 breaths/minute. Via a left thoracotomy (through the fourth intercostal space), the LAD coronary artery was permanently ligated 2 mm from its origin with a 7/0 polypropylene suture (Ethicon Inc., Somerville, NJ, USA). […] About 48 h after ligation of the artery, injections were performed using a 27-G needle. Rats were randomized into five groups: Group 1 (n = 5) received an intravenous injection of 1 c.c. saline (Control). […] Group 3 (n = 8) received 250 μL bolus intravenous injection of 50 μg/kg MRN Lactate [39, 40]. Group 4 (n = 5) received 250 μL intravenous injection of empty NPs in the same concentration as Group 1. […] Blood was collected 24 h post injection for milrinone quantification. […]
The milrinone in plasma samples was quantified using High Performance Liquid Chromatography (HPLC) LCMS-8060 (Shimadzu). […] All samples were reconstituted in 40 µL of mobile phase A and analyzed by LC-MS/MS. […] The gradient started at 95:5 A:B. Samples were quantified using the area under the curve (AUC) and a standard curve.

[3] = system: rat model of congestive heart failure
Protocol: Briefly, rats were anesthetized using 5% isoflurane, intubated, and mechanically ventilated at 80 breaths/minute. […] About 48 h after ligation of the artery, injections were performed using a 27-G needle. […] Group 3 (n = 8) received 250 μL bolus intravenous injection of 50 μg/kg MRN Lactate [39, 40]. […] Various endpoint measurements were taken as described in subsequent paragraphs.
Echocardiographic examinations were performed under inhaled isoflurane anesthesia (2.5% in oxygen, 500–700 mL/min). Transthoracic echocardiography was performed for each rat as a baseline before the surgery, 48 h post surgery, 60 min post injection, 24 h post injection, 48 h post injection, and 1-week post injection. Echocardiograms were obtained with a commercially available system (Micromaxx P04224; SonoSite, Bothell, WA, USA), equipped with a linear probe 7–13 MHz 25 mm footprint turbo transducer (P06519.11; SonoSite). Briefly, LV end-diastolic diameters (LVEDD) and end-systolic diameters (LVESD) were measured with M-mode tracings between the anterior and posterior walls from the parasternal short-axis view just below the level of the papillary muscles of the mitral valve [13]. The time of end-diastole was defined as time of maximum diameter of the LV in one heart cycle. Accordingly, end-systole was defined as the minimum diameter. Following the American Society of Echocardiology leading-edge method, two images on average were obtained in each view and averaged over three consecutive cycles [41]. The left-ventricular end-diastolic volume (LVEDV) and left-ventricular end-systolic volume (LVESV) were measured using the Teichholz formula [13].

[4] = Pharmacokinetics of milrinone in plasma after i.v. injection; assay type: in vivo, female Lewis rats; conditions: MRN dose 50 μg/kg, rat
Text: Amrinone was used as an internal standard.

IL-10 = test: Serum cytokine measurement by ELISA: IL-10; assay type: in vivo, female Lewis rats; conditions: 1-week post treatment; i.v. injection, CHF rats, mean ± SD (n = 5)
Protocol: as §1

TNF-α = test: Serum cytokine measurement by ELISA: TNF-α; assay type: in vivo, female Lewis rats; conditions: 1-week post treatment; i.v. injection, CHF rats, mean ± SD (n = 5)
Protocol: as §1

[5] = system: rat model of congestive heart failure; test: Serum safety and toxicity markers (liver and renal function); assay type: in vivo, female Lewis rats; conditions: CHF rats, i.v. injection; normal range 20–61 U/L
Protocol: Briefly, rats were anesthetized using 5% isoflurane, intubated, and mechanically ventilated at 80 breaths/minute. Via a left thoracotomy (through the fourth intercostal space), the LAD coronary artery was permanently ligated 2 mm from its origin with a 7/0 polypropylene suture (Ethicon Inc., Somerville, NJ, USA). […] About 48 h after ligation of the artery, injections were performed using a 27-G needle. Rats were randomized into five groups: Group 1 (n = 5) received an intravenous injection of 1 c.c. saline (Control). […] Group 4 (n = 5) received 250 μL intravenous injection of empty NPs in the same concentration as Group 1. […] Various endpoint measurements were taken as described in subsequent paragraphs. At 5 days post injection, all rats were killed by euthanasia.
Blood was collected via the jugular vein from the animals using a sterile 23 G/25 mm needle in the Microtainer® serum separator tubes (Becton Dickinson, Franklin Lakes, NJ, USA) for serum separation and in Plasma-EDTA tubes (Becton Dickinson, Franklin Lakes, NJ, USA) for plasma collection. The blood was allowed to clot at room temperature for 30 min and subsequently placed on ice until centrifugation. Serum was separated by low-speed centrifugation at 1500 rpm for 15 min at 4 °C and was frozen at −80 °C until analysis. […]

[6] = i.v. injection group, 48 h Post Ligation (before treatment)
[7] = i.v. injection group, Baseline—Pre-Ligation (before treatment)
[8] = i.v. injection, 50 μg/kg milrinone, 1-week Post Injection
[9] = i.v. injection, 50 μg/kg milrinone, 60 min Post Injection
[10] = i.v. injection, 50 μg/kg milrinone, 24 h Post Injection
[11] = i.v. injection, 50 μg/kg milrinone, 48 h Post Injection

CC(O)C(=O)O.Cc1[nH]c(=O)c(C#N)cc1-c1ccncc1 [MRN Lactate, milrinone lactate]
MRN detected in heart [1]: 2.00 ± 1.01 ng/mL
MRN detected in kidneys [1]: 4.80 ± 0.6 ng/mL
MRN detected in liver [1]: 2.44 ± 0.23 ng/mL
Serum IL-6 level (IL-6): 39.3 ± 2.7 pg/mL
milrinone detected in plasma [2]: 0.3 ± 0.1 ng/mL
Left Ventricular Ejection Fraction (LVEF) [3, 6]: 65.3 ± 2.3%
Left Ventricular Fractional Shortening (LVFS) [3, 6]: 34.3 ± 2.7%
Left Ventricular Ejection Fraction (LVEF) [3, 7]: 88.2 ± 1.8%
Left Ventricular Fractional Shortening (LVFS) [3, 7]: 52.6 ± 2.7%
Left Ventricular Ejection Fraction (LVEF) [3, 8]: 66.1 ± 4.2%
Left Ventricular Fractional Shortening (LVFS) [3, 8]: 30.8 ± 2.8%
Left Ventricular Ejection Fraction (LVEF) [3, 9]: 80.1 ± 3.3 %
Left Ventricular Fractional Shortening (LVFS) [3, 9]: 45.6 ± 3.2 %
Left Ventricular Ejection Fraction (LVEF) [3, 10]: 70.6 ± 3.6%
Left Ventricular Fractional Shortening (LVFS) [3, 10]: 33.6 ± 3.9%
Left Ventricular Ejection Fraction (LVEF) [3, 11]: 64.8 ± 4.3%
Left Ventricular Fractional Shortening (LVFS) [3, 11]: 30.2 ± 3.9%
milrinone concentration in plasma ([4]; 0 min): 334.2 ng/mL
milrinone concentration in plasma ([4]; 5 min, mean ± SD (n = 4)): 203.5 ± 45.3 ng/mL
milrinone concentration in plasma ([4]; 15 min, mean ± SD (n = 4)): 75.4 ± 6.2 ng/mL
milrinone concentration in plasma ([4]; 30 min, mean ± SD (n = 4)): 72.6 ± 12.4 ng/mL
milrinone concentration in plasma ([4]; 45 min, mean ± SD (n = 4)): 22.9 ± 11.2 ng/mL
milrinone concentration in plasma ([4]; 120 min, mean ± SD (n = 4)): 4.1 ± 1.5 ng/mL
milrinone concentration in plasma ([4]; 360 min, mean ± SD (n = 4)): 1.6 ± 0.1 ng/mL
AUC0-t ([4]; non-compartmental): 104.3 ng·h/mL
AUC0-∞ ([4]; non-compartmental): 106.7 ng·h/mL
CL (clearance) ([4]; non-compartmental): 7.83 mL/min/kg
MRT (mean residence time) ([4]; non-compartmental): 49.1 min
Vss (apparent volume of distribution at steady state) ([4]; non-compartmental): 0.38 L/kg
Vz (apparent volume of distribution at elimination) ([4]; non-compartmental): 0.73 L/kg
t1/2 (half-life of plasma) ([4]; non-compartmental): 64.7 min
Serum IL-10 level (IL-10): 146.1 ± 24.7 pg/mL
Serum TNF-α level (TNF-α): 17.1 ± 2.8 pg/mL
Serum ALT level [5]: within the normal range
